Measured values published in ChEMBL document CHEMBL5226326, “Discovery of 1-Benzoyl 4-Phenoxypiperidines as Small-Molecule Inhibitors of the β-Catenin/B-Cell Lymphoma 9 Protein-Protein Interaction” (J Med Chem, 2021).
pKd, pKi: −log10 of the molar value.

Legend:
[1] = target: T1, Catenin beta-1/Cadherin-1 (Homo sapiens, UniProt P35222); assay: Inhibition of full length beta-catenin (1 to 686 residues) (unknown origin) expressed in Escherichia coli BL21 (DE3)/N-terminal biotinylated human E-cadherin (824 to 877 residues) protein-protein interaction assessed as inhibition constant incubated for 2 hr by Alphascreen assay
T1 sequence (P35222 whole entry): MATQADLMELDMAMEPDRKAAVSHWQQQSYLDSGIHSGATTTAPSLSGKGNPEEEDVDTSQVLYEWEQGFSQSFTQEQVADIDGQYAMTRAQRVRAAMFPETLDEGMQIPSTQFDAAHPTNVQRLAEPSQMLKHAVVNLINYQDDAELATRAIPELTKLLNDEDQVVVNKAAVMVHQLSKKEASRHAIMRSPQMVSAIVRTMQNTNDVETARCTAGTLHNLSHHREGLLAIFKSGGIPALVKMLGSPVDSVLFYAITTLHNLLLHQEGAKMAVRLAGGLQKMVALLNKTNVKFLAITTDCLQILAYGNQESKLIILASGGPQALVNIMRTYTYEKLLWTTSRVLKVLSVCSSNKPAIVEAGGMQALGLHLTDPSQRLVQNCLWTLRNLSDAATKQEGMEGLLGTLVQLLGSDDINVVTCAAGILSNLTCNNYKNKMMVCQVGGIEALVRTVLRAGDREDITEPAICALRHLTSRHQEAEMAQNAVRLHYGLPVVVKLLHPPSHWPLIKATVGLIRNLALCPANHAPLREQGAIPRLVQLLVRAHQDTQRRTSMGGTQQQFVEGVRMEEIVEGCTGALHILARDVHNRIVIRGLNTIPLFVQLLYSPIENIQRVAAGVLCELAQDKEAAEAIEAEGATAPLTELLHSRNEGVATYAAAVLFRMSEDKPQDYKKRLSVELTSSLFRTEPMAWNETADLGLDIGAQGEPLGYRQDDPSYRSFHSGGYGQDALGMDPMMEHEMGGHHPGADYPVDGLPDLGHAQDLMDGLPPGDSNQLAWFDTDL
T1 sequence (P12830 whole entry): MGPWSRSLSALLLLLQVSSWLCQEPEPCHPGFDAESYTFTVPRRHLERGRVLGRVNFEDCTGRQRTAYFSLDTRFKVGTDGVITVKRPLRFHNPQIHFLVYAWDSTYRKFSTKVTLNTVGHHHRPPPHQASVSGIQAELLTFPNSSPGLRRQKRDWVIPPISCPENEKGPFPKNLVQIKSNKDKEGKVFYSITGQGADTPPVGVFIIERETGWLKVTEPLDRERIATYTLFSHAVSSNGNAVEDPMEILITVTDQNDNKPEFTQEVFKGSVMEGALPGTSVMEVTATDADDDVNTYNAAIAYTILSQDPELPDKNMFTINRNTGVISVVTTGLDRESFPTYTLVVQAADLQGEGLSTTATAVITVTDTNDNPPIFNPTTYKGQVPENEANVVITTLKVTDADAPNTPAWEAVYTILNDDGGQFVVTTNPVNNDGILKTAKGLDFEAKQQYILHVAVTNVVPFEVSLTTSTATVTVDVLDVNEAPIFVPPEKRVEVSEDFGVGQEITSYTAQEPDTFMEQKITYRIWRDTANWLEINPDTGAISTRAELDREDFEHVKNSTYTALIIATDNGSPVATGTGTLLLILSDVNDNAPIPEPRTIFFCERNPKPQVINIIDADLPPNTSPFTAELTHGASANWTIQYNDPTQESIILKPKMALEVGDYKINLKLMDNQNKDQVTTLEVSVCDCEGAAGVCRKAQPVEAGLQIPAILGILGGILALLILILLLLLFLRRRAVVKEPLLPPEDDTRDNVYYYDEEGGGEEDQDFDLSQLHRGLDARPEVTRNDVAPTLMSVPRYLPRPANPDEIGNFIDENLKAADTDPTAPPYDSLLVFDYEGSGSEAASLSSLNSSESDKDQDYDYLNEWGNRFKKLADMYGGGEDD

[2] = target: T1, Catenin beta-1/Cadherin-1; assay: Inhibition of full length beta-catenin (1 to 686 residues) (unknown origin) expressed in Escherichia coli BL21 (DE3)/N-terminal biotinylated human E-cadherin (824 to 877 residues) protein-protein interaction incubated for 2 hr by Alphascreen assay

## CC(C)(C)C1CCC(c2cc(C(=O)N3CCC(Oc4cc(N5CCNCC5)ccc4C#N)CC3)ccc2O[C@H]2CCNC2)CC1.Cl.Cl (mixture of isomers; cis)
[1]
  pKi: 4.72
[2]
  pKd: 4.10
